Tested on: Thy1-aSyn mice
Experiment: Initial efficacy in Thy1-aSyn mice, aSyn immunofluorescence in substantia nigra
Type: in vivo
Details: Thy-1 aSyn mice, 100 mg/kg/day oral, 5 weeks
Procedure: Mice overexpressing human wild-type a-synuclein under control of the Thy-1 promoter (Thy1-aSyn mice) and control C57B1/6 mice were housed under a 12-hour light/dark cycle and had access to standard chow ad libitum. […] Two hours after the last dose, mice were euthanized by ketamine/xylazine over-anesthesia followed by cardiac puncture and saline transcardial perfusion. Brain tissue from individual mice were dissected.
All staining procedures and data collection were performed by investigators blinded to treatment. Double-immunofluorescence for Clone 42 Anti-aSyn/TH in SN (substantia nigra). Analysis of a-synuclein and tyrosine hydroxylase (TH, the marker of dopaminergic neurons) levels was performed in serially sectioned, free-floating vibratome sections. […]
For the quantification of aSyn and TH fluorescent immunolabeling images of immunofluorescence-labeled sections were acquired using an Agilent (Santa Clara, Calif.) microarray scanner equipped with a krypton/argon laser (647 nm) at 10 μm resolution with the photomultiplier tube set at 5% for aSyn and 10% for TH. Immunofluorescence intensity was measured using ImageJ in the appropriate region of interest. TH staining was quantified in the SN pars compact and SN pars reticulate. […]

In the case of `O=c1[nH]c(=S)[nH]c(-c2ccccc2)c1Cc1c(O)ccc2ccccc12` [cambinol], the “aSyn levels in the substantia nigra (SN)” value is reported as “trend to decrease”.

— patent publication US20200270216A1, “COMPOSITIONS AND METHODS FOR INHIBITING N-SMASE2” (The Regents of the University of California, priority 2017, published 2020)
